Measured values published in patent US10752587B2, “Homobispiperidinyl derivatives as liver X receptor beta agonists, compositions and their use” (Merck Sharp & Dohme Corp., priority 2015, dated 2020).
Read-outs that look alike come from different tables or passages of the source.

Key:
[1] = target: T1, glutathione-S-transferase (GST) tagged LXRalpha LBD (ligand binding domain) (Homo sapiens, UniProt Q13133); assay: LanthaScreen TR-FRET Liver X Receptor Coactivator Assay, co-activator recruitment to LXRalpha LBD; format: biochemical; details: for LXR alpha IP (nM) / EC50: potency (Inflection Point, IP), co-activator recruitment to LXRalpha LBD, in relation to T0901317
T1 construct: purchased Invitrogen pv4655
T1 sequence (Q13133 209-447 limits assumed): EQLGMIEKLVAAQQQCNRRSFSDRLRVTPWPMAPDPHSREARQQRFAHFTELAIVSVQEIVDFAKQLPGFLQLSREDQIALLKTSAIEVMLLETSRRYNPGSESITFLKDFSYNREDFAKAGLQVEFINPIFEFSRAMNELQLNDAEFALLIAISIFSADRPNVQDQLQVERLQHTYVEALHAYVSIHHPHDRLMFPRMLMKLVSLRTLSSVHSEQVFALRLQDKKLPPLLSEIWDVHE
Procedure, shortened: (§1)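 GST-tagged LBD added to test compound, then fluorescein-labelled coactivator peptide plus terbium anti-GST antibody; incubated at room temperature, TR-FRET read. Potency given as inflection point and efficacy as Emax relative to reference dual agonist T0901317.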

[2] = target: T2, glutathione-S-transferase (GST) tagged LXRbeta LBD (ligand binding domain) (Homo sapiens, UniProt P55055); assay: LanthaScreen TR-FRET Liver X Receptor Coactivator Assay, co-activator recruitment to LXRbeta LBD; format: biochemical
T2 construct: purchased Invitrogen pv4658.pps
T2 sequence (P55055 222-460 limits assumed): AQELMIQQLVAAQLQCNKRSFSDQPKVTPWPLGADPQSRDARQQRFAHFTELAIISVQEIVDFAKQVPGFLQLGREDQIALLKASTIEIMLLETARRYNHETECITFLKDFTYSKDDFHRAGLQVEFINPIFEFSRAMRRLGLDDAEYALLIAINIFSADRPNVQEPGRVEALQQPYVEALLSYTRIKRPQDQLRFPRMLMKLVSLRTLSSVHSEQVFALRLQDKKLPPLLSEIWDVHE
Procedure, shortened: as §1

[3] = efficacy at max dose, in relation to reference dual agonist T0901317, read-out: LXR alpha Activity @ max dose (%)
[4] = efficacy at max dose, in relation to reference dual agonist T0901317, read-out: LXR beta Activity @ max dose (%)
[5] = potency (Inflection Point, IP), co-activator recruitment to LXRbeta LBD, in relation to T0901317, read-out: LXR beta IP
[6] = efficacy at max dose, in relation to reference dual agonist T0901317
[7] = read-out: LXR alpha Activity @ max dose (%)
[8] = LXR beta IP (nM), potency (Inflection Point, IP), co-activator recruitment to LXRbeta LBD, in relation to T0901317
[9] = read-out: LXR beta Activity @ max dose (%)

Row | Emax [1, 3] [%] | LXR alpha IP (nM) [1] | Emax [2, 4] [%] | EC50 [2, 5] [nM] | EC50 ([1]; read-out: LXR alpha IP) [nM] | SMILES | further results
1 | 7 | NO IP | 49 | 4 | – | CN(C)C(=O)c1ccc(N2CCC(CC3(C)CCN(C(=O)[C@](O)(c4cccc(Cl)c4)C(F)(F)F)CC3)CC2)cc1Cl [Example 2-47, 2-chloro-4-[4-({1-[(2R)-2-(3-chloro-phenyl)-3,3,3-trifluoro-2-hydroxy-propanoyl]-4-methyl-piperidin-4-yl}methyl)piperidin-1-yl]-N,N-dimethyl-benzamide] | –
2 | 3 | NO IP | 70 | 12 | – | Cc1nc(N2CCC(CC3CCN(C(=O)[C@](O)(c4cc(Cl)cc(Cl)c4)C(F)(F)F)CC3)CC2)ccc1C(=O)N(C)C [Example 7-9, 6-[4-({1-[(2R)-2-(3,5-dichlorophenyl)-3,3,3-trifluoro-2-hydroxypropanoyl]piperidin-4-yl}methyl)piperidin-1-yl]-N,N,2-trimethylpyridine-3-carboxamide] | –
3 | 18 | NO IP | 74 | 11 | – | COc1cc(F)cc([C@@](O)(C(=O)N2CCC(CC3CCN(c4ccc(C(=O)N(C)C)c(C)c4)CC3)CC2)C(F)(F)F)c1 [Example 2-152, N,N,2-trimethyl-4-[4-({1-[(2R)-3,3,3-trifluoro-2-(3-fluoro-5-methoxyphenyl)-2-hydroxy-propanoyl]piperidin-4-yl}methyl)piperidin-1-yl]benzamide] | –
4 | 4 | NO IP | 34 | 192 | – | COc1cccc([C@@](O)(C(=O)N2CCC(CN3CCN(c4ccc(C(=O)N(C)C)c(Cl)c4)CC3)CC2)C(F)(F)F)c1 [Example 6-4, 2-chloro-N,N-dimethyl-4-[4-({1-[(2R)-3,3,3-trifluoro-2-hydroxy-2-(3-methoxyphenyl)propanoyl]piperidin-4-yl}methyl)piperazin-1-yl]benzamide] | –
5 | 2 | NO IP | 70 | 169 | – | COc1cccc([C@@](O)(C(=O)N2CC(CC3CCN(c4ccc(C(=O)N(C)C)c(OC)n4)CC3)C2)C(F)(F)F)c1 [Example 7-21, 2-methoxy-N,N-dimethyl-6-[4-[{1-[(2R)-3,3,3-trifluoro-2-hydroxy-2-(3-methoxyphenyl)propanoyl]azetidin-3-yl}methyl)piperidin-1-yl]pyridine-3-carboxamide] | –
6 | 19 | – | 82 | 371 | 4620 | CN(C)C(=O)c1ccc(N2CCC(OC3CCN(C(=O)C4(c5ccccc5)CCC4)CC3)CC2)cc1Cl [Example 2-27, 2-chloro-N,N-dimethyl-4-[4-({1-[(1-phenyl-cyclobutyl)carbonyl]piperidin-4-yl}oxy)piperidin-1-yl]benzamide] | –

Further lines, the compound ahead of its results:

Row | SMILES | Emax [1, 3] [%] | LXR alpha IP (nM) [1] | Emax [2, 4] [%] | EC50 [2, 5] [nM] | EC50 ([1]; read-out: LXR alpha IP) [nM] | further results
7 | COc1cccc([C@@](O)(C(=O)N2CCC(OC3CCN(c4ccc(C(=O)N(C)C)c(OC)n4)CC3)CC2)C(F)(F)F)c1 [Example 7-154, 2-methoxy-N,N-dimethyl-6-[4-({1-[(2R)-3,3,3-trifluoro-2-hydroxy-2-(3-methoxyphenyl)propanoyl]piperidin-4-yl}oxy)piperidin-1-yl]pyridine-3-carboxamide] | 34 | – | 93 | 47 | 2940 | –
8 | COc1cccc([C@@](O)(C(=O)N2CCC(CC3CCN(c4ccc(C(=O)N(C)C)c(C)n4)CC3)CC2)C(F)(F)F)c1 [Example 7-8, N,N,2-trimethhyl-6-[4-({1-[(2R)-3,3,3-trifluoro-2-hydroxy-2-(3-methoxyphenyl)propanoyl]piperidin-4-yl}methyl)piperidin-1-yl]pyridine-3-carboxamide] | – | – | – | 12 | – | LXR alpha Activity @ max dose (%) [1, 6]: 6%; LXR beta Activity @ max dose (%) [2, 6]: 53%
9 | CN(C)C(=O)c1ccc(N2CCC(CC3CCN(S(=O)(=O)c4cccc(OC(F)(F)F)c4)CC3)CC2)cc1Cl [Example 13-16] | – | – | – | – | – | LXR alpha IP (Inflection Point, potency) ([1]; co-activator recruitment to GST-LXRalpha LBD, TR-FRET): NO IP; Emax ([1]; efficacy in relation to reference dual agonist T0901317, read-out: LXR alpha Activity @ max dose): 0%; EC50 ([2]; co-activator recruitment to GST-LXRbeta LBD, TR-FRET, read-out: LXR beta IP (Inflection Point, potency)): 135 nM; Emax ([2]; efficacy in relation to reference dual agonist T0901317, read-out: LXR beta Activity @ max dose): 35%
10 | CN(C)C(=O)c1ccc(N2CCC(CC3CCN(C(=O)C(O)(c4ccccn4)C4CC4)CC3)CC2)cc1Cl (stereo not shown) [Example 2-118, 2-chloro-4-[4-({1-[cyclopropyl (hydroxy)pyridin-2-ylacetyl]piperidin-4-yl}methyl)piperidin-1-yl]-N,N-dimethyl-benzamide] | – | NO IP | – | – | – | Emax [1, 7]: 11%; EC50 [2, 8]: 219 nM; Emax [2, 9]: 68%
11 | CN(C)C(=O)c1ccc(N2CCC(CC3CCN(C(=O)[C@](O)(c4cc(F)cc(Cl)c4)C(F)(F)F)CC3)CC2)cc1 [Example 2-139, 4-[4-({1-[(2R)-2-(3-chloro-5-fluorophenyl)-3,3,3-trifluoro-2-hydroxy-propanoyl]piperidin-4-yl}methyl)piperidin-1-yl]-N,N-dimethyl-benzamide] | 36 | – | 95 | 14 | 266 | –
12 | Cc1cc(N2CCC(CC3CCN(C(=O)[C@](O)(c4cc(Cl)cc(Cl)c4)C(F)(F)F)CC3)CC2)ccc1C(=O)N(C)C [Example 2-154, 4-[4-({1-[(2R)-2-(3,5-dichloro-phenyl)-3,3,3-trifluoro-2-hydroxy-propanoyl]piperidin-4-yl}methyl)piperidin-1-yl]-N,N,2-trimethyl-benzamide] | 6 | NO IP | 54 | 23 | – | –
13 | CN(C)C(=O)c1ccc(N2CCC(CC3CCN(C(=O)[C@](O)(c4cc(Cl)cc(Cl)c4)C(F)F)CC3)CC2)cc1Cl [Example 2-121, 2-chloro-4-[4-({1-[(2R)-2-(3,5-dichloro-phenyl)-3,3-difluoro-2-hydroxy-propanoyl]piperidin-4-yl}methyl)piperidin-1-yl]-N,N-dimethyl-benzamide] | 0 | NO IP | 51 | 7 | – | –
14 | COc1cc(F)cc(C(O)(C(=O)N2CCC(CC3CCN(c4ccc(C(=O)N(C)C)c(Cl)n4)CC3)CC2)C(F)(F)F)c1 (stereo not shown) [Example 7-89, 2-chloro-N,N-dimethyl-6-[4-({1-[3,3,3-trifluoro-2-(3-fluoro-5-methoxyphenyl)-2-hydroxypropanoyl]piperidin-4-yl}methyl)piperidin-1-yl]pyridine-3-carboxamide] | 19 | – | 86 | 6 | 112 | –
15 | CN(C)C(=O)c1ccc(N2CCC(CC3CCN(C(=O)C(O)(c4ccccc4)C4CCC4)CC3)CC2)nc1Cl (stereo not shown) [Example 7-97, 2-chloro-6-[4-({1-[cyclobutyl(hydroxy)phenylacetyl]piperidin-4-yl}methyl)piperidin-1-yl]-N,N-dimethylpyridine-3-carboxamide] | – | – | – | – | – | EC50 ([1]; LXR alpha IP (nM)): 1180 nM; Emax [1, 7]: 38%; EC50 [2, 8]: 40 nM; Emax [2, 9]: 98%
16 | CN(C)C(=O)c1ccc(N2CCC(CC3CCN(C(=O)[C@](O)(c4cccc(OCC(F)(F)F)c4)C(F)(F)F)CC3)CC2)cc1Cl [Example 2-97, 2-chloro-N,N-dimethyl-4-{4-[(1-{(2R)-3,3,3-trifluoro-2-hydroxy-2-[3-(2,2,2-trifluoroethoxy)phenyl]propanoyl}piperidin-4-yl)methyl]piperidin-1-yl}benzamide] | 0 | NO IP | 20 | 40 | – | –
17 | CN(C)C(=O)c1ccc(N2CCC(OC3CCN(C(=O)[C@](O)(c4ccccc4)C(F)(F)F)CC3)CC2)cc1Cl [Example 2-11, 2-chloro-N,N-dimethyl-4-[4-({1-[(2R)-3,3,3-trifluoro-2-hydroxy-2-phenylpropanoyl]piperidin-4-yl}oxy)piperidin-1-yl]benzamide] | – | – | 83 | – | 1110 | LXR alpha Activity @ max dose (%) [1, 6]: 33%
18 | CN(C)C(=O)c1ccc(N2CCC(CC3CCN(C(=O)C(O)(c4cccc(Cl)c4)C(F)(F)F)CC3)CC2)cc1Cl (stereo not shown) [Example 2-17, 2-chloro-4-[4-({1-[2-(3-chlorophenyl)-3,3,3-trifluoro-2-hydroxy-propanoyl]piperidin-4-yl}methyl)piperidin-1-yl]-N,N-dimethyl-benzamide] | 24 | – | 63 | 11 | 140 | –
